Test systems include LOX IMVI; SN12C; SF-268; HOP-92; ACHN; SK-OV-3; T47D; UACC-257; CAKI-1; MOLT-4; OVCAR-3; EKVX; SF-539; RXF 393; HCC 2998; HCT-15; SNB-19; K562; COLO 205; HOP-62.
Assay in all cases: NCI anticancer screen, dose series, 48 h

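A five-concentration, 48-hour dose response in 96-well plates underlies each endpoint, interpolated linearly between surrounding concentrations. At the GI50, growth is halved.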 The source made the active and inactive calls. Rule as the data show it: active = GI50 up to about 1.1 µM and inactive = higher. Some results are limits rather than exact numbers.

On to `CCOC(=O)C(NCc1cccc(C(F)(F)F)c1)(NC(=O)CC)C(F)(F)F` (stereo not given), for which the GI50 is > 100 µM (inactive) in the experiment with LOX IMVI; > 100 µM (inactive) in the experiment on SN12C; > 100 µM (inactive) in the experiment with SF-268; 71 µM (inactive) in the experiment with HOP-92; > 100 µM (inactive) in the experiment with ACHN; > 100 µM (inactive) in the experiment on SK-OV-3. The GI50 is 62.4 µM (inactive) in the experiment on T47D; > 100 µM (inactive) in the experiment with UACC-257; > 100 µM (inactive) in the experiment on CAKI-1; 82.6 µM (inactive) with MOLT-4; > 100 µM (inactive) with OVCAR-3; 68.5 µM (inactive) in the experiment on EKVX. Also, the GI50 with SF-539 was > 100 µM (inactive); in the experiment with RXF 393, 5.52 µM (inactive); in the experiment with HCC 2998, > 100 µM (inactive); in the experiment on HCT-15, > 100 µM; in the experiment on SNB-19 it was > 100 µM (inactive); in the experiment with K562 it was > 100 µM (inactive). For the same compound, the GI50 in the experiment with COLO 205 and in the experiment on HOP-62 was > 100 µM (inactive) throughout.

For the compound `Cc1ccc(C2=Nc3cc(C)c(Cl)cc3S(=O)(=O)NN2)cc1`, the GI50 with LOX IMVI was > 100 µM (inactive); in the experiment with SN12C it was > 100 µM (inactive); in the experiment on SF-268, 82.6 µM (inactive); in the experiment on HOP-92, > 100 µM (inactive); with ACHN it was 65.5 µM (inactive); with SK-OV-3, > 100 µM (inactive). The GI50 with T47D is 54 µM (inactive); in the experiment with UACC-257, > 100 µM (inactive); with CAKI-1, 27.9 µM (inactive); in the experiment on MOLT-4, 37.9 µM (inactive); in the experiment with OVCAR-3, > 100 µM (inactive); in the experiment on EKVX, > 100 µM (inactive). In addition, the GI50 is > 100 µM (inactive) in the experiment with SF-539; 72.1 µM (inactive) with RXF 393; > 100 µM (inactive) in the experiment on HCC 2998; > 100 µM in the experiment on HCT-15; 44.6 µM (inactive) in the experiment on SNB-19; 36.3 µM (inactive) in the experiment with K562. Moreover, the GI50 in the experiment on COLO 205 and in the experiment with HOP-62 was > 100 µM (inactive) throughout.

Take `CC[N+]1(C)CCC(O)(/C=C/c2ccc(Cl)c(Cl)c2)C(C(=O)/C=C/c2ccc(Cl)c(Cl)c2)C1` (stereo not given): the GI50 is 1.39 µM (inactive) in the experiment with LOX IMVI; 1.88 µM (inactive) in the experiment on SN12C; 2.67 µM (inactive) in the experiment on SF-268; 1.7 µM (inactive) in the experiment on HOP-92; 1.98 µM (inactive) with ACHN; 3.41 µM (inactive) in the experiment on SK-OV-3. Besides, the GI50 in the experiment on T47D is 1.8 µM (inactive); in the experiment with UACC-257, 2.38 µM (inactive); with CAKI-1 it was 4.07 µM (inactive); in the experiment with MOLT-4, 2.28 µM (inactive); in the experiment with OVCAR-3, 3.09 µM (inactive); in the experiment with EKVX, 11.1 µM (inactive). The GI50 is 3.03 µM (inactive) in the experiment with SF-539; 2.04 µM (inactive) in the experiment on RXF 393; 1.95 µM (inactive) in the experiment on HCC 2998; 2.17 µM in the experiment with HCT-15; 6.11 µM (inactive) in the experiment with SNB-19; 1.55 µM (inactive) in the experiment on K562. Further, the GI50 in the experiment on COLO 205 was 2.65 µM (inactive); in the experiment with HOP-62, 2.49 µM (inactive).

As to `O=C(OCC1OC(n2nc(Cn3nnc(-c4cccnc4)n3)n(-c3cccc4ccccc34)c2=S)C(OC(=O)c2ccccc2)C1OC(=O)c1ccccc1)c1ccccc1` (stereo not given), the GI50 with LOX IMVI, in the experiment on SN12C, in the experiment on SF-268, with HOP-92, in the experiment with ACHN and in the experiment with SK-OV-3 was > 100 µM (inactive) in each case. Besides, the GI50 in the experiment on T47D, in the experiment with UACC-257, in the experiment on CAKI-1, in the experiment with MOLT-4, with OVCAR-3 and in the experiment on EKVX was > 100 µM (inactive) in each case. Besides, the GI50 in the experiment on SF-539 was > 100 µM (inactive); with RXF 393, > 100 µM (inactive); with HCC 2998 it was > 100 µM (inactive); in the experiment with HCT-15, > 100 µM; in the experiment on SNB-19 it was > 100 µM (inactive); in the experiment with K562, > 100 µM (inactive). Besides, the GI50 in the experiment with COLO 205 and with HOP-62 was > 100 µM (inactive) throughout.

For `CCOc1ccc(/N=N/c2ccc3cc(/C(C)=N/NC(=O)/C(C#N)=C\c4ccc(N(CCC#N)CCC#N)cc4)c(=O)oc3c2)cc1`, the GI50 in the experiment with LOX IMVI, in the experiment on SN12C, in the experiment with SF-268, with HOP-92, with ACHN and with SK-OV-3 was > 10 µM (inactive) in each case. For the same compound, the GI50 in the experiment on T47D, in the experiment with UACC-257, with CAKI-1, with MOLT-4, in the experiment on OVCAR-3 and with EKVX was > 10 µM (inactive) throughout. Further, the GI50 in the experiment with SF-539 is > 10 µM (inactive); with RXF 393, > 10 µM (inactive); with HCC 2998, > 10 µM (inactive); in the experiment on HCT-15, > 10 µM; with SNB-19 it was > 10 µM (inactive); with K562 it was > 10 µM (inactive). Moreover, the GI50 with COLO 205 and with HOP-62 was > 10 µM (inactive) throughout.

Turning to `CC(=O)Oc1ccc(C(c2ccc(OC(C)=O)cc2)c2ccccn2)cc1` [BISACODYL], the GI50 in the experiment on LOX IMVI is 29.2 µM (inactive); with SN12C it was 7.16 µM (inactive); in the experiment with SF-268, > 100 µM (inactive); in the experiment with HOP-92, 36.8 µM (inactive); in the experiment with ACHN, 78.7 µM (inactive); in the experiment on SK-OV-3, 59.4 µM (inactive). The GI50 was 0.228 µM (active) with T47D; > 87.3 µM (inactive) with UACC-257; > 100 µM (inactive) in the experiment with CAKI-1; 57 µM (inactive) in the experiment on MOLT-4; 0.219 µM (active) in the experiment on OVCAR-3; 18.8 µM (inactive) with EKVX. In addition, the GI50 was > 91.2 µM (inactive) in the experiment with SF-539; 13.8 µM (inactive) in the experiment on RXF 393; 2.9 µM (inactive) in the experiment on HCC 2998; 39.7 µM in the experiment on HCT-15; > 100 µM (inactive) in the experiment on SNB-19; 59.4 µM (inactive) with K562. Also, the figures for the GI50 in the experiment with COLO 205 and in the experiment on HOP-62 were 0.406 µM (active) and > 92.7 µM (inactive), respectively.

For the compound `O=C(c1ccc2ccccc2c1)N(Cc1cccnc1)C(=S)N(Cc1cccnc1)C(=O)c1ccc2ccccc2c1`, the GI50 in the experiment with LOX IMVI is 19 µM (inactive); with SN12C, 64 µM (inactive); in the experiment with SF-268, 29.2 µM (inactive); in the experiment with HOP-92, 26.5 µM (inactive); with ACHN, 32.1 µM (inactive); with SK-OV-3, 46.3 µM (inactive). The GI50 with T47D was 26.3 µM (inactive); in the experiment with UACC-257, 19.5 µM (inactive); in the experiment with CAKI-1, 22.2 µM (inactive); in the experiment on MOLT-4, 41.3 µM (inactive); in the experiment with OVCAR-3 it was 20.5 µM (inactive); with EKVX, 22.8 µM (inactive). For the same compound, the GI50 with SF-539 is 40 µM (inactive); in the experiment with RXF 393, 19.3 µM (inactive); in the experiment with HCC 2998, 16.5 µM (inactive); in the experiment with HCT-15, 32.1 µM; with SNB-19 it was 37.2 µM (inactive); in the experiment with K562, 41.6 µM (inactive). The figures for the GI50 in the experiment with COLO 205 and in the experiment on HOP-62 were 29.2 µM (inactive) and 23.2 µM (inactive), respectively.

In the case of `C=CC[C@H]1[C@@H](O[Si](C)(C)C(C)(C)C)[C@H](n2ccc(=O)[nH]c2=O)O[C@@H]1CO[Si](C)(C)C(C)(C)C`, the GI50 is 1.63 µM (inactive) with LOX IMVI; 1.52 µM (inactive) in the experiment with SN12C; 2.99 µM (inactive) in the experiment on SF-268; 1.21 µM (inactive) in the experiment on HOP-92; 2.33 µM (inactive) in the experiment on ACHN; 1.36 µM (inactive) in the experiment on SK-OV-3. For the same compound, the GI50 in the experiment with T47D is 2.61 µM (inactive); in the experiment with UACC-257, 2.45 µM (inactive); in the experiment on CAKI-1, 2.23 µM (inactive); in the experiment on MOLT-4, 1.99 µM (inactive); in the experiment on OVCAR-3, 1.52 µM (inactive); in the experiment on EKVX it was 1.67 µM (inactive). The GI50 is 4.19 µM (inactive) with SF-539; 1.56 µM (inactive) with RXF 393; 1.93 µM (inactive) in the experiment on HCC 2998; 1.77 µM in the experiment on HCT-15; 2.39 µM (inactive) in the experiment on SNB-19; 2.2 µM (inactive) in the experiment on K562. Besides, the GI50 in the experiment with COLO 205 was 1.79 µM (inactive); in the experiment on HOP-62, 1.76 µM (inactive).

As for `CC(C)C(C/C=C1\CC(CO)(COC(=O)CC(C(C)C)C(C)C)OC1=O)C(C)C` (stereo not given), the GI50 in the experiment on LOX IMVI was 12.6 µM (inactive); in the experiment with SN12C it was 9.1 µM (inactive); in the experiment with SF-268, 14.2 µM (inactive); with HOP-92, 0.902 µM (active); in the experiment with ACHN, 10.3 µM (inactive); with SK-OV-3, 17.7 µM (inactive). The GI50 in the experiment with T47D was 13.3 µM (inactive); in the experiment on UACC-257, 15.6 µM (inactive); with CAKI-1, 6.87 µM (inactive); in the experiment with MOLT-4, 1.05 µM (active); with OVCAR-3, 15.6 µM (inactive); in the experiment on EKVX, 10 µM (inactive). For the same compound, the GI50 in the experiment on SF-539 is 18.3 µM (inactive); in the experiment on RXF 393, 14.5 µM (inactive); with HCC 2998, 5.96 µM (inactive); with HCT-15 it was 18.5 µM; in the experiment on SNB-19, 13.3 µM (inactive); in the experiment with K562, 1.36 µM (inactive). For the same compound, the values for the GI50 in the experiment on COLO 205 and in the experiment with HOP-62 were 1.49 µM (inactive) and 5.08 µM (inactive), respectively.

Consider `CN(CCn1cnc2c1c(=O)n(C)c(=O)n2C)C1CCCCC1`, for which the GI50 with LOX IMVI, in the experiment on SN12C, with SF-268, in the experiment with HOP-92, with ACHN and in the experiment on SK-OV-3 was > 100 µM (inactive) throughout. The GI50 in the experiment with T47D, in the experiment on UACC-257, with CAKI-1, in the experiment on MOLT-4, in the experiment with OVCAR-3 and with EKVX was > 100 µM (inactive) in each case. The GI50 with SF-539 was > 100 µM (inactive); in the experiment with RXF 393, > 100 µM (inactive); in the experiment on HCC 2998, > 100 µM (inactive); in the experiment on HCT-15, > 100 µM; in the experiment with SNB-19, > 100 µM (inactive); in the experiment on K562 it was > 100 µM (inactive). In addition, the GI50 in the experiment on COLO 205 and with HOP-62 was > 100 µM (inactive) each time.

These data come from ChEMBL document CHEMBL1201862, “PubChem BioAssay data set” (2004).
